Patent US11331368B2, “Angiotensin receptor agonists and uses thereof” (Monash University, priority 2017, dated 2022)
Entries after “also recorded” stand apart in the source; their conditions may differ. Square brackets hold non-standard residues; d marks the D form. Ends that are not written are not given here. βVal = β-valine (β-amino acid form of Val)

Tests used:
[1] = Systolic blood pressure by tail-cuff in high salt-fed mice; assay type: in vivo, mouse; settings: data not shown
Experimental: The incision area was sutured with 6/0 DY silk ([…] Ltd) and antibiotic powder applied ([…], Pfizer) followed by intramuscular injection of the analgesic Cartrophen (0.1 ml of a 1.5 mg/ml stock solution; Biopharm Australia). Systolic blood pressure (SBP) was measured using non-invasive tail-cuff plethysmography apparatus (MC4000 Blood Pressure Analysis System, Hatteras Instrument Inc) before drug treatment (week 0), and then fortnightly. At the end of the 8 week treatment period mice were weighed before being killed by overdose of isoflurane inhalation and cervical dislocation. […] To this end, modified Ang peptides of interest were dissolved in saline and delivered subcutaneously via an implanted osmotic minipump and systolic blood pressure (SBP) was measured fortnightly.

[2] = system: male FVB/N mice on high salt diet, kidney; assay: High salt (5%) diet intervention model, kidney; assay type: in vivo, mouse; settings: 75 pmol/kg/min s.c., weeks 5-8
[3] = system: male FVB/N mice on high salt diet, liver; assay: High salt (5%) diet intervention model, liver; assay type: in vivo, mouse; settings: weeks 5-8, peptides 75 pmol/kg/min s.c., Cand 2 mg/kg/day, captopril 3 mg/kg/day
Experimental: (§1) C) In the intervention (or reversal) model, male FVB/N mice were treated with selective AT2Rs agonists after the establishment of cardiovascular disease using a high salt diet, in order to reverse cardiovascular pathologies. In some experiments, the ACE inhibitor captopril (dose) or the ARB candesartan cilexetil (dose) were given for 4 weeks in drinking water. Organs examined included heart, kidney and liver and these were compared to either untreated mice or high salt-fed mice that were treated with saline.
(§2) Mice were placed on either a normal rodent diet (0.35% NaCl) which acted as control or a high salt diet (5% sodium in food chow) for 8 weeks. After 4 weeks, mice were also treated subcutaneously (via osmotic mini-pump) with either saline or an AT2R agonist (75 pmol/kg/min subcutaneously) for 4 weeks. Mice continued to be fed a high salt diet whilst receiving these treatments.
Liver sections used either picrosirius red staining or Masson's trichome staining as described above. Higher concentrations of picrosirius red were often used under polarized light microscopy. The liver was removed and sectioned with half of the liver placed in 10% formalin and the rest frozen in liquid nitrogen before being stored in ˜80° C. freezer for future use. Formalin fixed, paraffin embedded livers were sectioned at thickness of 4 μm and were stained with Masson's trichrome according to standard procedures for analysis of liver fibrosis. […] Sections were re-fixed in Bouin's solution for 1 hour at 56° C. to improve staining quality then rinsed in running tap water for 5-10 minutes to remove yellow colour. Following this, sections were stained in Weigert's iron hematoxylin working solution for 10 minutes. Rinsed in running warm tap water for 10 minutes. Washed in distilled water. Stained in Biebrich scarlet-acid fuchsin solution for 10-15 minutes.
Washed in distilled water. Differentiated in phosphomolybdic-phosphotungstic acid solution for 10-15 minutes or until collagen was no longer red. Sections were transferred directly (without rinse) to aniline blue solution and stained for 5-10 minutes. Rinsed briefly in distilled water and differentiated in 1% acetic acid solution for 2-5 minutes. Washed in distilled water. […] Mounted with DPX mounting medium. Quantification of liver fibrosis was performed using images captured with the Aperio scanner (Monash Histology Platform, Monash University), with ×5 magnification. Each liver section had 5 different fields of view photographed at this magnification. Percentage of interstitial and perivascular collagen was analysed and quantified using ImageJ 1.48 software (Java, NIH), and the percentage from 5 random fields of view were averaged for final percentage of collagen for that particular animal. All analysis of collagen expression was conducted in a blinded fashion.

[4] = system: male FVB/N mice on high salt diet, heart; assay: High salt (5%) diet intervention model, heart; assay type: in vivo, mouse; settings: for expression of P-IκBα (marker for NFκB activation) in heart: peptides 75 pmol/kg/min s.c.; for cardiac fibrosis (picrosirius red): weeks 5-8 of high salt diet, peptides 75 pmol/kg/min s.c. mini-pump, captopril 3 mg/kg/day in drinking water
In short: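 Male FVB/N mice fed 5% salt diet for 8 weeks (controls 0.35% NaCl); from week 4, AT2R agonist at 75 pmol/kg/min or saline given subcutaneously by osmotic minipump for 4 weeks on continued high salt. Heart collagen by picrosirius red, % interstitial staining averaged over eight fields; immunofluorescence for fibrosis/inflammation markers.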

[5] = system: male FVB/N mice on high salt diet, kidney; assay: High salt (5%) diet intervention model, kidney; assay type: in vivo, mouse; settings: 75 pmol/kg/min s.c., weeks 5-8; remark: listed apart in the source
Experimental: as §1, §2
To measure collagen deposition, frozen sections of heart, kidney or aorta (all 5 μm thickness) were air dried for 10 minutes and were brought through 3 times xylene (2 minutes each), and 3 times absolute alcohol washes before being rinsed in tap H2O for 30 seconds. Staining with an optimal concentration of picrosirius red (in this instance 0.05% picrosirius red diluted in saturated picric acid) was performed and left for an hour. Sections were then rinsed in water and differentiated in 0.01M HCl for 2 minutes, followed by dehydration via 3 times absolute alcohol washes. Then, slides were brought through 3 times xylene washes before being cover slipped according to standard histological techniques using DPX as the mounting medium. Images were taken under ×20 magnification, using bright field (Olympus, BX51) and circularized polarized light microscopy (DM IRB, Leica) while percentage of positive interstitial collagen staining per total field of view was quantified using ImageJ 1.46 software (Java, NIH), and averaged out from a total of eight views as the final percentage collagen content in a particular animal.
Kidney sections used either picrosirius red staining as described above or using Mason's Trichrome staining as described below.
Formalin fixed, paraffin embedded kidneys were sectioned at thickness of 4 μm and were stained with Masson's trichrome according to standard procedures for analysis of kidney fibrosis. […] Sections were re-fixed in Bouin's solution for 1 hour at 56° C. to improve staining quality then rinsed in running tap water for 5-10 minutes to remove yellow colour. Following this, sections were stained in Weigert's iron hematoxylin working solution for 10 minutes. Rinsed in running warm tap water for 10 minutes. Washed in distilled water. Stained in Biebrich scarlet-acid fuchsin solution for 10-15 minutes. Washed in distilled water. Differentiated in phosphomolybdic-phosphotungstic acid solution for 10-15 minutes or until collagen was no longer red. Sections were transferred directly (without rinse) to aniline blue solution and stained for 5-10 minutes. Rinsed briefly in distilled water and differentiated in 1% acetic acid solution for 2-5 minutes. Washed in distilled water. […] Mounted with DPX mounting medium.
Quantification of kidney fibrosis was performed using images captured with the Aperio scanner (Monash Histology Platform, Monash University), with ×5 magnification. Each kidney section had 5 different fields of view photographed at this magnification. Percentage of tubulointerstitial collagen was analysed and quantified using ImageJ 1.48 software (Java, NIH), and the percentage from 5 random fields of view were averaged for final percentage of collagen for that particular animal. All analysis of collagen expression was conducted in a blinded fashion.

human AT1R = target: T1, human AT1R (Homo sapiens, UniProt P30556); assay: Competition radioligand binding (125I-Sar1-Ile8-AngII) in AT1R-transfected HEK-293 cells
T1 construct: expressed in transfected cells
T1 sequence (P30556 1-359): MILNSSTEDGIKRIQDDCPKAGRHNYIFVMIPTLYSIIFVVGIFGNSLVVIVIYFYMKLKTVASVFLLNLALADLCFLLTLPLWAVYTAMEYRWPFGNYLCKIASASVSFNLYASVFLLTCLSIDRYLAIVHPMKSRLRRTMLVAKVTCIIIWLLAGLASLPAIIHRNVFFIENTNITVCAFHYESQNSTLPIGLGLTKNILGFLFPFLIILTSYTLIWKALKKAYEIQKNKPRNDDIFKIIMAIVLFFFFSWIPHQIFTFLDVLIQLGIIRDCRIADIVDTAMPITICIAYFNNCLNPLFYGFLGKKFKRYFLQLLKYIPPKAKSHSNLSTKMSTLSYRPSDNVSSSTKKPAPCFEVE
Experimental: (§3) This will lead to the generation of IC50 values that determine the relative ability of test compounds to interact with both Angiotensin receptors.
(§4) Cells were grown to approximately 80% confluence before being re-plated into 48 well plates at 1×10^5 cells/well and grown for 48 hours at 37° C. for a whole cell competition binding assay. [125I]-Sar1Ile8Ang II at 50,000 cpm, incubated for 45 minutes at 37° C., in the absence or presence of unlabeled ligands, prepared in binding buffer (DMEM, 0.1% BSA), were used in the competition assays at concentrations ranging from 1 μM to 10 μM. For each experiment, each ligand concentration was tested in duplicate or triplicate, and each experiment was repeated at least 3 separate times. […] The ability of each ligand to inhibit specific binding of [125I]-Sar1Ile8Ang II was measured on a gamma counter with all counts corrected for NSB.

human AT2R = target: T2, human AT2R (Homo sapiens, UniProt P50052); assay: Competition radioligand binding (125I-Sar1-Ile8-AngII) in AT2R-transfected HEK-293 cells; settings: transfected HEK-293 cells
T2 construct: expressed in transfected cells
T2 sequence (P50052 1-363): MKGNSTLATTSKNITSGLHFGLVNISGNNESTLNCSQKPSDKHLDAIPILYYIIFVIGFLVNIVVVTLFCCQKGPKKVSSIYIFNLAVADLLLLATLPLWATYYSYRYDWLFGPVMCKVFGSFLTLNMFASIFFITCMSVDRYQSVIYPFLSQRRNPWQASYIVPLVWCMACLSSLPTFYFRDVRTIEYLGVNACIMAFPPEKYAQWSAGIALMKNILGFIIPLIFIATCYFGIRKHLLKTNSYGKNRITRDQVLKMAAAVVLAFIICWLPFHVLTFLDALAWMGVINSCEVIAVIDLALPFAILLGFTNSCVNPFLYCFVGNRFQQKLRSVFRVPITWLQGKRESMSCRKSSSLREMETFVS
Experimental: as §3, §4

[6] = In vitro plasma stability assay (rat plasma); assay type: in vitro ADME; settings: plasma from male spontaneously hypertensive rats (SHR), read-out: Plasma stability (t1/2)
Experimental: Proteolytic stability may be tested in a plasma stability assay used to assess the susceptibility of a peptide described herein to plasma proteases. Plasma stability may be tested using methods described herein. For example, a sample of rat plasma may be incubated with peptide of interest (final concentration was 1 mg/mL; plasma diluted by 10% with peptide dissolved in saline). Protease activity is then quenched in samples by the addition of acetonitrile, at selected time intervals. The amount of parent compound remaining at each time point can then be assayed on an Agilent 1100 MSD SL ion trap mass spectrometer. The peaks observed in the resulting chromatograms are integrated, compared to a standard curve, and cross-checked by mass and retention time (Jones et al 2011 Hypertension. 57: 570-576).
B) Proteolytic stability was tested in a plasma stability assay used to assess the susceptibility of Ang II peptides to plasma proteases. A sample of rat plasma was incubated with peptide of interest (final concentration was 1 mg/mL; plasma diluted by 10% with peptide dissolved in saline). Protease activity was quenched in samples by the addition of acetonitrile, at selected time intervals. The amount of parent compound remaining at each time point was then assayed on an Agilent 1100 MSD SL ion trap mass spectrometer. […]

[7] = target: T3, human Angiotensin II Receptor Type 1 (AT1R) (human, UniProt P30556 1-359); assay: competition radioligand binding on HEK-293 cells with AT1R; competitor [125I]-Sar1Ile8Ang II
T3 construct: whole, on cells; also endogenous on human cardiac fibroblasts (functional entry); also called AT1 receptor
T3 sequence (looked up): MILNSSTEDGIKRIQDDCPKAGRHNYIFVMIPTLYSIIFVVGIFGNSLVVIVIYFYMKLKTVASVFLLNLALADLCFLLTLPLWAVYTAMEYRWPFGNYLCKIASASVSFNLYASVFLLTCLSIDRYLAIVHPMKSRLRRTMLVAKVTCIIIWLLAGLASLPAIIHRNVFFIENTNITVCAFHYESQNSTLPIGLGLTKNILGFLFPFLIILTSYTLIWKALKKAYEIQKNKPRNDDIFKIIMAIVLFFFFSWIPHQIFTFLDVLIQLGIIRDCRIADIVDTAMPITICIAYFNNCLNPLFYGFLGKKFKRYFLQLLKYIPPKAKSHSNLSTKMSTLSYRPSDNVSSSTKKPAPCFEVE
Experimental: For each experiment, each ligand concentration was tested in duplicate or triplicate, and each experiment was repeated at least 3 separate times.

Molecule: CC[C@H](C)[C@@H](CC(=O)N[C@@H](Cc1c[nH]cn1)C(=O)N1CCC[C@H]1C(=O)N[C@@H](Cc1ccccc1)C(=O)O)NC(=O)[C@H](Cc1ccc(O)cc1)NC(=O)[C@@H](NC(=O)[C@H](CCCNC(=N)N)NC(=O)[C@@H](N)CC(=O)O)C(C)C [βIle-Ang II, Asp-Arg-Val-Tyr-β-Ile-His-Pro-Phe]
- systolic blood pressure (SBP) [1]: did not alter SBP
- macrophage infiltration in kidney (F4/80) [2]: reversed
- liver steatosis (Oil Red O) [3]: significantly reduced excess lipid accumulation
- liver fibrosis (picrosirius red, polarized light) ([3]; listed as 8-Ile^5-Ang II): reversed collagen accumulation to levels seen in normal salt group
- liver fibrosis (picrosirius red, polarized light) ([3]; listed as β-Ile^5-Ang II): similarly inhibited the pro-fibrotic effects of high salt in the liver
- TGF-β1 protein in the heart (Western blot) ([4]; 75 pmol/kg/min s.c., weeks 5-8): significantly lower TGF-β1 protein
- myofibroblast differentiation in heart (α-SMA) ([4]; 75 pmol/kg/min s.c., weeks 5-8): reduced myofibroblast differentiation
- MMP-13 protein expression in heart (Western blot) ([4]; weeks 5-8, peptide 75 pmol/kg/min s.c., Cand 2 mg/kg/day, captopril 3 mg/kg/day): normalised MMP-13 to levels observed in the normal salt group
- macrophage infiltration/expression in heart (F4/80) ([4]; weeks 5-8, peptide 75 pmol/kg/min s.c., Cand 2 mg/kg/day, captopril 3 mg/kg/day, listed as β-Ile^5-Ang II): reversed by all agents; also recorded: reduced macrophage infiltration/expression
- expression of P-IκBα (marker for NFκB activation) in heart ([4]; weeks 5-8, Cand 2 mg/kg/day, captopril 3 mg/kg/day, listed as β-Ile^5-Ang II): significantly reduced expression of P-IκBα
- cardiac fibrosis (picrosirius red) ([4]; Cand 2 mg/kg/day, listed as β-Ile^5-Ang II): reversed high salt-induced cardiac fibrosis
- kidney tubulointerstitial fibrosis (Masson's trichrome) [5]: reversed high salt-induced tubulointerstitial fibrosis

Molecule: CC[C@H](C)[C@H](NC(=O)[C@H](Cc1ccc(O)cc1)NC(=O)[C@@H](NC(=O)[C@H](CCCNC(=N)N)NC(C)=O)C(C)C)C(=O)N[C@@H](Cc1c[nH]cn1)C(=O)N1CCC[C@H]1CC(=O)N[C@@H](Cc1c[nH]c2ccccc12)C(=O)O [NAc-βPro-Trp-8-Ang III, NAc--Arg-Val-Tyr-Ile-His-β-Pro-Trp]
- binding at AT1R (displacement of 125I-Sar1-Ile8-AngII), in words (human AT1R): bind poorly
- macrophage infiltration in kidney (F4/80) [2]: reversed high salt-induced macrophage infiltration in the kidney
- renal fibrosis by hydroxyproline analysis [2]: reversed the pro-fibrotic effects of high salt in the kidney
- renal inflammation (phospho-IκBα expression) [2]: reversed high salt-induced renal inflammation in the kidney
- binding at AT2R (displacement of 125I-Sar1-Ile8-AngII), in words (human AT2R): high affinity
- half-life at 1 mg/mL [6]: 25.8 h
- cardiac fibrosis by hydroxyproline analysis (LV collagen content) ([4]; 75 pmol/kg/min s.c., weeks 5-8): reversed the pro-fibrotic effects of high salt in the heart
- cardiac oxidative stress (DHE staining) ([4]; 75 pmol/kg/min s.c., weeks 5-8): reversed the oxidative stress effects of high salt in the heart
- myofibroblast differentiation in heart (α-SMA) ([4]; 75 pmol/kg/min s.c., weeks 5-8): reversed myofibroblast differentiation
- expression of P-IκBα (marker for NFκB activation) in heart ([4]; weeks 5-8, Cand 2 mg/kg/day, captopril 3 mg/kg/day): reversed
- cardiac fibrosis (picrosirius red) ([4]; Cand 2 mg/kg/day): reversed cardiac fibrosis
- kidney glomerular fibrosis (picrosirius red) [5]: reversed the glomerular fibrosis caused by high salt in the kidney
- kidney tubulointerstitial fibrosis (picrosirius red) [5]: reversed the tubulointerstitial fibrosis caused by high salt in the kidney

B1: βVal-Trp-8-Ang III (peptide)
peptide: R[βVal]YIHPW
notes: synthetic peptide; also called Arg-β-Val-Tyr-Ile-His-Pro-Trp
- IC50 [7]: 1.21 µM
